From PubChem BioAssay (NCI)
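Interpolation was linear, between the two tested concentrations surrounding the appropriate level; five concentrations were tested over 48 hours in 96-well plates. The concentration for 50% growth inhibition is given as GI50. At the TGI there is no net growth.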

Tests used:
Assay in all cases: NCI-60 cell line screen, 48 h
CCRF-CEM leukemia = test system: CCRF-CEM leukemia
HCT-15 colon = test system: HCT-15 colon
HOP-62 NSCLC = test system: HOP-62 NSCLC
IGROV1 ovarian = test system: IGROV1 ovarian
NCI/ADR-RES ovarian = test system: NCI/ADR-RES ovarian
SK-MEL-2 melanoma = test system: SK-MEL-2 melanoma
SK-MEL-28 melanoma = test system: SK-MEL-28 melanoma
SK-MEL-5 melanoma = test system: SK-MEL-5 melanoma
SNB-19 CNS = test system: SNB-19 CNS
SNB-75 CNS = test system: SNB-75 CNS

SMILES | GI50 (CCRF-CEM leukemia) [µM] | TGI (CCRF-CEM leukemia) [µM] | GI50 (HCT-15 colon) [µM] | TGI (HCT-15 colon) [µM] | GI50 (HOP-62 NSCLC) [µM] | TGI (HOP-62 NSCLC) [µM] | GI50 (IGROV1 ovarian) [µM] | TGI (IGROV1 ovarian) [µM] | GI50 (NCI/ADR-RES ovarian) [µM] | TGI (NCI/ADR-RES ovarian) [µM] | GI50 (SK-MEL-2 melanoma) [µM] | TGI (SK-MEL-2 melanoma) [µM] | GI50 (SK-MEL-28 melanoma) [µM] | TGI (SK-MEL-28 melanoma) [µM] | GI50 (SK-MEL-5 melanoma) [µM] | TGI (SK-MEL-5 melanoma) [µM] | GI50 (SNB-19 CNS) [µM] | TGI (SNB-19 CNS) [µM] | GI50 (SNB-75 CNS) [µM] | TGI (SNB-75 CNS) [µM]
C=C1CC[C@@H]2[C@](C)(COC(C)=O)[C@H](OC(C)=O)CC[C@@]2(C)[C@@H]1CC(Nc1ccc(S(=O)(=O)Nc2ccc(Cl)nn2)cc1)C1=CCOC1=O (some centres undefined) | 0.465 | 2.6 | 0.882 | 2.3 | 1.46 | 2.99 | 2.08 | 5 | 1.87 | 6.2 | 1.77 | 3.99 | 1.68 | 3.46 | 1.6 | 3.13 | 1.91 | 3.91 | 1.44 | 5.9
CCOC(=O)c1cc2c(n1Cc1cc(OC)c(OC)c(OC)c1)-c1oncc1CCC2 | 0.318 | 5.38 | 0.186 | > 100 | 0.447 | 37.2 | 0.147 | 5.36 | 0.0614 | > 100 | 0.0841 | 0.545 | 0.255 | > 54.5 | 0.207 | 7.01 | 0.604 | > 100 | 0.111 | > 61.7
O=[N+]([O-])c1ccc(N2CCC(CCCC3CCN(c4ccc([N+](=O)[O-])cc4[N+](=O)[O-])CC3)CC2)c([N+](=O)[O-])c1 | – | 35.9 | – | 41.6 | – | 29.5 | – | 25.3 | – | 57.7 | – | 32 | – | 28.9 | – | 30.7 | – | 34.8 | – | 32.8
Cc1nn(-c2ccc([N+](=O)[O-])cc2)c2ncnc(N/N=C/c3ccccc3O)c12 | 0.222 | > 100 | – | – | 0.397 | 3.29 | 0.462 | 4.31 | 0.337 | 3.66 | 1.57 | > 45 | 0.443 | 5.53 | 0.448 | 2.25 | 0.507 | 8.65 | 0.554 | 4.23
Cc1[nH]c(=O)nc(Nc2ccc(Cl)cc2)c1C(=O)N1CCN(CCO)CC1 | > 100 | > 100 | > 100 | > 100 | 27.2 | 77.4 | > 100 | > 100 | > 100 | > 100 | – | – | > 100 | > 100 | > 100 | > 100 | 33.8 | > 100 | 21.7 | 52.3
Cc1nn(-c2ccc(Cl)cc2)c2nc3c(nc12)C(=O)C(=O)c1ccccc1-3 | – | – | 3.4 | 16.8 | 9.71 | 30.4 | 5.46 | 47.3 | 3.92 | > 100 | 4.71 | 16.2 | 7.76 | 74.8 | 4.94 | 24.1 | 2.48 | 8.17 | 1.66 | 4.3
